Assay results published in patent US20210283078A1, “Treatment of cholestatic pruritus” (CymaBay Therapeutics, Inc., priority 2017, published 2021).
Like-named read-outs stand apart in the source and are kept apart here. Each block holds one compound with its values, some of them ahead of it.

Assays:
[1] = system: patients with cholestatic pruritus; settings: several studies; cited from earlier work
[2] = system: adult subjects with PBC; experiment: Example 1: High dose trial in PBC (NCT02609048); assay type: in vivo, human; settings: for cases of asymptomatic increases in transaminases: reversible on cessation, no elevation of total bilirubin
From the text: (§1) The trial subjects were adult, male or female, with a diagnosis of PBC by at least two of the following three criteria: (a) a history of alkaline phosphatase (ALP) above the upper limit of normal (ULN) for at least six months, (b) positive anti-mitochondrial antibody titers >1/40 on immunofluorescence or M2 positive by enzyme linked immunosorbent assay or positive PBC-specific antinuclear antibodies, and (c) documented liver biopsy result consistent with PBC, on a stable and recommended dose of UDCA for the past twelve months, and ALP≥1.67×ULN. Exclusion criteria included AST or ALT≥3×ULN, total bilirubin (TBIL)≥2×ULN, autoimmune hepatitis or a history of chronic viral hepatitis, PSC, the current use of fibrates or simvastatin, the use of colchicine, methotrexate, azathioprine, or systemic steroids in the previous two months, the use of an experimental treatment for PBC, and the use of an experimental or unapproved immunosuppressant. […] Pruritus was assessed using VAS, 5-D itch, and PBC-40. During the study, three cases of asymptomatic increases in transaminases were observed (two in the 200 mg and one in the 50 mg groups): all were reversible on cessation of treatment and were not accompanied by elevation of total bilirubin. Since the study had already shown a clear efficacy signal, the study was discontinued.

[3] = system: adult subjects with PBC; experiment: Example 2: Low-dose trial in PBC (NCT02955602), pruritus by VAS; assay type: in vivo, human; settings: for baseline median VAS: subjects with VAS>0 at baseline; for median change in VAS: week 26
From the text: as §1
At 12 weeks, the results of pruritus assessment by VAS (0-100 scale) were as follows:
37 subjects with VAS>0 at baseline were analysed in the interim analysis at 26 weeks: 18 subjects in the 5/10 mg group and 19 in the 10 mg group. Baseline median VAS were 15 (range 1-68) and 50 (range 5-90) in the 5/10 mg and 10 mg groups, respectively. At week 26, median changes in VAS were −50% and −55% in the 5/10 mg and 10 mg groups, respectively.

[4] = system: adult subjects with PSC, PFIC, or AS; experiment: Example 3: treatment of subjects with hepatobiliary disease associated with pruritus; assay type: in vivo, human; settings: 1, 2, 5, and 10 mg/day oral
Experimental: Subjects are permitted their usual other medications, including UDCA. […] At each visit, the subjects are assessed for cholestatic symptoms and biomarkers, and assessed for cholestatic pruritus. The subjects also maintain health diaries, which are reviewed at each visit.

[5] = system: patients with cholestatic pruritus; settings: more recent study; cited from earlier work
[6] = system: patients with cholestatic pruritus; settings: two studies; cited from earlier work
[7] = system: PBC patients with pruritus; settings: Phase 2a; cited from earlier work
[8] = system: PBC patients; settings: 12-month trial, cited from earlier work

SMILES: C=C1CC[C@@]2(O)[C@H]3Cc4ccc(O)c5c4[C@@]2(CCN3CC2CC2)[C@H]1O5 [nalmefene]
- reduction of cholestatic pruritus vs control intervention [1]: more likely to reduce cholestatic pruritus than the control intervention

- cases of asymptomatic increases in transaminases ([2]; 50 mg/day oral): one
- cases of asymptomatic increases in transaminases ([2]; 200 mg/day oral): two
- subjects discontinued for increased pruritus possibly related to PBC ([3]; 10 mg/day, after five days, subject entered with intense pruritus): One
SMILES: CCO[C@H](COc1ccc(C(F)(F)F)cc1)CSc1ccc(OCC(=O)O)c(C)c1 [Seladelpar, [4-({(2R)-2-ethoxy-3-[4-(trifluoromethyl)phenoxy]propyl}sulfanyl)-2-methylphenoxy]acetic acid]
- adverse events of pruritus on treatment ([2]; 50 or 200 mg/day oral): no adverse events of pruritus were reported
- anti-cholestatic effect (primary endpoint ALP) ([2]; 50 or 200 mg/day oral, at least two weeks of treatment): a potent anti-cholestatic effect was observed
- effect on cholestatic pruritus associated with PBC ([3]; 5 mg/day and 10 mg/day, 12 weeks): significantly reduced the cholestatic pruritus
- pruritus VAS (0-100 scale), median ([3]; 5 mg/day, Visit 2 (Day 1)): 8
- pruritus VAS (0-100 scale), median ([3]; 5 mg/day, Visit 3 (Week 1)): 10
- pruritus VAS (0-100 scale), median ([3]; 5 mg/day, Visit 4 (Week 2)): 9
- pruritus VAS (0-100 scale), median ([3]; 5 mg/day, Visit 5 (Week 4)): 10
- pruritus VAS (0-100 scale), median ([3]; 5 mg/day, Visit 6 (Week 6)): 5
- pruritus VAS (0-100 scale), median ([3]; 5 mg/day, Visit 7 (Week 8)): 7
- pruritus VAS (0-100 scale), median ([3]; 5 mg/day, Visit 8 (Week 12)): 3
- baseline median VAS ([3]; 10 mg group, n=19): 50 (range 5-90)
- median change in VAS ([3]; 10 mg group): −55%
- pruritus VAS (0-100 scale), median ([3]; 10 mg/day, Visit 2 (Day 1)): 25
- pruritus VAS (0-100 scale), median ([3]; 10 mg/day, Visit 3 (Week 1)): 13
- pruritus VAS (0-100 scale), median ([3]; 10 mg/day, Visit 4 (Week 2)): 30
- pruritus VAS (0-100 scale), median ([3]; 10 mg/day, Visit 5 (Week 4)): 20
- pruritus VAS (0-100 scale), median ([3]; 10 mg/day, Visit 6 (Week 6)): 10
- pruritus VAS (0-100 scale), median ([3]; 10 mg/day, Visit 7 (Week 8)): 15
- pruritus VAS (0-100 scale), median ([3]; 10 mg/day, Visit 8 (Week 12)): 6
- baseline median VAS ([3]; 5/10 mg group, n=18): 15 (range 1-68)
- median change in VAS ([3]; 5/10 mg group): −50%
- discontinuations related to seladelpar ([3]; at 26 weeks): no discontinuations related to seladelpar
- serious adverse events due to pruritus ([3]; at 26 weeks): no serious adverse events due to pruritus
- pruritus reported as an adverse event ([3]; at 26 weeks, 24/119 subjects): 20%
- effect on cholestasis, transaminases, LDL-cholesterol, inflammation ([3]; doses as low as 5 mg/day, at 12 weeks): reversed cholestasis, decreased transaminases, decreased LDL-cholesterol, and reduced inflammation
- improvement in disease (decrease in ALP and GGT) [4]: improvement in their disease

SMILES: O=C1CC[C@@]2(O)[C@H]3Cc4ccc(O)c5c4[C@@]2(CCN3CC2CC2)[C@H]1O5 [naltrexone]
- reduction of cholestatic pruritus vs control intervention [1]: more likely to reduce cholestatic pruritus than the control intervention

SMILES: CO[C@H]1/C=C/O[C@@]2(C)Oc3c(C)c(O)c4c(O)c(c(/C=N/N5CCN(C)CC5)c(O)c4c3C2=O)NC(=O)/C(C)=C\C=C\[C@H](C)[C@H](O)[C@@H](C)[C@@H](O)[C@@H](C)[C@H](OC(C)=O)[C@@H]1C [rifampicin]
- incidence of significant hepatitis [5]: 7.3%

SMILES: CN[C@H]1CC[C@@H](c2ccc(Cl)c(Cl)c2)c2ccccc21 [sertraline]
- tolerability and reduction of itch intensity [6]: well tolerated and moderately effective

SMILES: CCCC[C@]1(CC)CS(=O)(=O)c2cc(CNC(CC(=O)O)CC(=O)O)c(OC)cc2[C@@H](c2ccccc2)N1 [GSK2330672]
- diarrhea (most common side effect), subjects [7]: 33%
- reductions in itch scores (1-10 numerical rating scale, PBC-40 itch domain score, 5-D itch scale) vs placebo [7]: significantly greater reductions in itch scores

SMILES: C=CCN1CC[C@]23c4c5ccc(O)c4O[C@H]2C(=O)CC[C@@]3(O)[C@H]1C5 [naloxone]
- reduction of cholestatic pruritus vs control intervention [1]: more likely to reduce cholestatic pruritus than the control intervention

SMILES: CC[C@H]1[C@@H](O)[C@@H]2[C@H](CC[C@]3(C)[C@@H]([C@H](C)CCC(=O)O)CC[C@@H]23)[C@@]2(C)CC[C@@H](O)C[C@@H]12 [OCALIVA, 6α-ethylchenodeoxycholic acid]
- severe pruritus, patients ([8]; 10 mg arm): 23%
- severe pruritus, patients ([8]; titration arm): 19%
